Source: patent US6638956B2, “Pesticidal 1-arylpyrazoles” (Rhone-Poulenc, Inc., priority 1996, dated 2003)

How the values were obtained:
[1] = tested on: Lucilia sericata, sleep blow fly; conditions: disclosed in WO 92/13451; cited from earlier work

SMILES: N#Cc1nc(-c2c(C=NO)nn(-c3c(Cl)cc(C(F)(F)F)cc3Cl)c2Cl)[nH]c1C#N [5-chloro-1-[2,6-dichloro-4-(trifluoromethyl)phenyl]-4-(4,5-dicyano-1H-imadazol-2-yl)-3-hydroxyiminomethyl-1H-pyrazole]
- activity against Lucilia sericata [1]: activity against a single species

SMILES: C[S+]([O-])c1c(C=NO[Si](C)(C)C(C)(C)C)nn(-c2c(Cl)cc(C(F)(F)F)cc2Cl)c1N (centres unmarked)
- melting point: 150 to 154 °C
